# Test results as given in patent US20240358682A1, “USE OF ALPHA-2-ADRENERGIC RECEPTOR AGONISTS FOR IMPROVING VISION” (Allergan, Inc., priority 2018, published 2024).
# Tests used:
# [1] = Protocol: Aliquots of the PBS only curve were quenched at time zero to be used as stability controls and calibration standards. Following centrifugation, samples were analyzed by LC-MS/MS bioanalysis. Back-calculated concentrations using the assay PBS curve were used for binding and stability calculations.
# [2] = test system: patients; assay: Patient case examples (presbyopia, glare/starbursts/halos, night vision, night myopia); type: in vivo, human
# Description: A person complains of an inability to focus on text when reading up close, which is interfering with their ability of read documents at work, as well as reading books and news articles. The problem seems worse under lower lighting conditions, such as the dim lighting in a restaurant. The visual degradation had been occurring over time, but in recent months, the person's inability to focus on text when read close up had been more pronounced such as to interfere with their quality of life. The person is seen by an ophthalmologist who performs a visual acuity test in which they are asked to read lines of letters on an eye chart without the assistance of glasses or contacts (neither of which they wear anyway). They find that they are only able to read the first four lines on the chart, when a person with normal vision should be able to read six. Based on the person's age and results of the test, they are diagnosed with presbyopia. The person is reluctant to have to obtain reading glasses or wear contact lenses and asks if there are any other medical treatments. They are instructed to administer to their eyes a composition comprising a compound of Formula I one or two times a day. Starting with the first couple of doses, the patient reports improved vision when reading text up close. On a follow-up visit to the ophthalmologist, they are again asked to read lines of letters on an eye chart (they are still administering the composition with the compound of Formula I to their eyes), and this time they are able to read the first six lines, a two line improvement over their previous results prior to administering the compound of Formula I to their eyes.
# A person has noticed that their near vision has been deteriorating over the last few years such that they often have to hold reading material almost out to arm's length in order to be able to read the print, especially when the ambient light is dim. The person visits their ophthalmologist who performs a basic eye exam and refraction assessment. Based on the examination, the ophthalmologist prescribes a composition comprising brimonidine to constrict the person's pupil to treat the presbyopia, and the person is instructed to administer the composition to their eyes daily as needed.
# A person decides to undergo LASIK surgery. The surgeon who will perform the surgery evaluates the patient and determines that they are a suitable candidate for the surgery, but is told that side effects of the surgery include visual glare, visual starbursts, and visual halos, especially at night. The surgeon performs the surgery without any noticeable issues and the patient is discharged. A day later the patient drives home during the evening for the first time since the surgery and notices what appear to be starbursts of light emanating from the headlights and rear lights of other cars, as well as from street lights, and also glare coming from those light sources that interfere with is vision. The patient also observes diffuse rings around some of the street lights and illuminated street signs. Upon consultation, the surgeon confirms that such visual disturbances are indeed the visual glare, visual starburst, and visual halo side effects often seen after LASIK surgery, and the patient is prescribed a composition comprising the compound of Formula I, which the patient administers to their eyes in accordance with the package instructions.
# A person has noticed that they are having issues seeing the street names on street signs with good contrast when they are driving at night. The person consults with their ophthalmologist who, upon hearing the patient's description and performing a visual acuity test under low light conditions, prescribes a composition comprising the compound of Formula I, which the patient administers to their eyes in accordance with the package instructions. […]
# [3] = test system: Dutch Belted rabbits; assay: In vivo rabbit miosis model, low-light (scotopic) conditions; details: for animals with greater than 2.5 mm reduction in pupil size from baseline: 0.1% w:v, scotopic (<10 lux), n=6; for miotic efficacy compared with brimonidine: single topical dose, low light, FIG. 1 to FIG. 4
# Protocol: (§1) Female Dutch Belted rabbits (Covance, Princeton, New Jersey) weighing between 2-4 kg were used for these studies. […] For topical dosing, eye drops (volume=35 μl) were instilled into the lower conjunctival sac of the test eye.
# Pupil diameter was measured in both the treated and untreated eye with an Optistick to the nearest 0.5 mm. […] All studies were done under low-light conditions in which a red photography light is used providing 2-10 Lux of light.
# [4] = test system: Dutch Belted rabbits; assay: In vivo rabbit miosis model, room light conditions; details: room lighting conditions, FIG. 5
# Protocol: Percentage amounts are % w:v.
# as §1
# Pupil diameter was measured in both the treated and untreated eye with an Optistick to the nearest 0.5 mm. In all studies, baseline pupil diameter measurements were taken prior to drug administration and then at 0.5, 1, 2, 3 and 4 hours post dose. […]
# [5] = test system: presbyopic patients; details: different lighting conditions, McDonald II et al.; cited from earlier work
smiles,measurement,setting,value
Cc1c(N=C2NCCN2)ccc2[nH]cnc12 [Compound 1],melanin binding (assessment in words),[1],no significant melanin binding
same,ability to focus on distant objects at night,[2]; person with night myopia,as good as their ability to do so during the day
same,administrations needed per day to treat presbyopia,[2]; person with presbyopia,once (or sometimes twice)
same,improvement in lines read on eye chart,"[2]; person with presbyopia, composition one or two times a day",two
same,night vision contrast,"[2]; person, driving at night",much better contrast
same,"visual glare, starbursts and halos after LASIK","[2]; person, night driving",significantly reduced
same,animals with greater than 2.5 mm reduction in pupil size from baseline,[3]; after 6 hours,more than half
same,animals with greater than 2.5 mm reduction in pupil size from baseline,[3]; two hours after dosing,virtually all
same,miotic efficacy compared with brimonidine,[3],greater magnitude of pupil size reduction
same,pupil constriction at 9 hours after dosing,"[3]; topical dose, FIG. 6",significant pupil constriction
same,effect on pupil constriction compared to Compound 3,"[3]; topical dose, FIG. 7",greater effect
same,miotic action compared with brimonidine (peak pupil constriction and duration of action),[4],greater miotic action than brimonidine
"CCc1c(N=C2NCCN2)ccc2[nH]cnc12 [Compound 2, reference compound]",miotic efficacy compared with brimonidine,[3],much less than brimonidine
"Brc1c(N=C2NCCN2)ccc2[nH]cnc12 [Compound 3, reference compound]",miotic efficacy compared with brimonidine,[3],much less than brimonidine
"Brc1c(NC2=NCCN2)ccc2nccnc12 [Compound 4, brimonidine, reference compound]",melanin binding (assessment in words),[1],much more significant binding
same,administrations needed per day to treat presbyopia,[2]; person with presbyopia,three
same,animals with greater than 2.5 mm reduction in pupil size from baseline,[3]; after 6 hours,virtually none
same,animals with greater than 2.5 mm reduction in pupil size from baseline,[3]; half hour after dosing,much less than half
same,average pupil size after brimonidine,[5],3.4 mm
